From patent US20140248374A1, “COMPOSITIONS AND MULTI-STEP METHODS OF USING THE SAME FOR THE TREATMENT OF JELLYFISH STINGS” (UNIVERSITY OF HAWAII, priority 2011, published 2014)

Experiments:
[1] = test system: human washed red blood cells (RBC, 2%) subjected to Alatina moseri venom; test: Venom-induced hemolysis of washed RBC, 96-well plate, plasma hemoglobin read spectrophotometrically; type: cell-based; settings: 1 hour at 37° C., FIG. 1
Protocol: Using a 96-well plate, human washed red blood cells (RBC, 2%) were subjected to Alatina moseri venom (6.4 U/mL/%). And treated simultaneously with a dose of zinc gluconate administered to a final concentration of from 0 to 25 mM zinc gluconate in combination with a dose of copper gluconate administered to a final concentration of from 0 to 128 μM. At the end of the incubation period, the 96 well plate was centrifuged briefly at 4° C. to pellet red blood cells from plasma. Plasma hemoglobin levels were then determined spectrophotometrically.

hemolytic toxins = settings: in the presence of 10 mM D-lactulose; cited from earlier work
[2] = test system: Chironex fleckeri (the Australian box jellyfish) venom; test: Survival time following lethal doses of venom in mice; type: in vivo

Molecule: zinc gluconate
- inhibition of venom-induced hemolysis ([1]; zinc gluconate alone (baseline), 2% RBC, Alatina moseri venom 6.4 U/mL/%): baseline inhibition of venom-induced hemolysis

Molecule: copper gluconate
- inhibition of venom-induced hemolysis ([1]; copper gluconate (0 to 128 μM) with between 0 mM and 12.5 mM zinc gluconate): substantially increased the baseline inhibition
- hemolysis after exposure to venom ([1]; up to 128 μM copper gluconate added to 25 mM zinc gluconate): practically eliminated hemolysis

Molecule: OC[C@H]1O[C@@H](O[C@@H]2[C@@H](CO)O[C@](O)(CO)[C@H]2O)[C@H](O)[C@@H](O)[C@H]1O [D-lactulose]
- hemolysis (hemolytic toxins): dramatic absence of hemolysis

Molecule: Zinc
- survival time [2]: increase survival time
